The text below walks through data of US8835458B2 (Hanmi Science Co., Ltd, priority 2010, dated 2014).

Where a name gives a salt, the structure may show the parent alone. Read-outs that look alike come from different tables or passages of the source.

Data set [1] can be described thus: Toxicity to normal cells (SRB). Type of data set: cell-based, human. The settings on record: human, Hs27 fibroblasts (normal cell line). Put shortly: (§1)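 GI50 values come from growth equations comparing treated, untreated and medium-only wells. Fibroblasts (Hs27, Balb/c3t3) got 72 h compound exposure with SRB read-out at 540 nm after TCA fixing. MDA-MB-231 got 120 h with MTS at 490 nm, across 10 μM˜0.1 nM.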

The nature of data set [2]: Toxicity to normal cells (SRB). The settings on record: mouse, Balb/c3t3 fibroblasts (normal cell line), read-out: BalB/C (GI50). Type of data set: cell-based, mouse. How it is done:
MDA-MB-231 breast cancer cell lines (ATCC #HTB-26) and BxPC-3 pancreas cancer cell lines (ATCC #CRL 1687), which have been reported to express XIAP, were obtained from ATCC (American type culture collection; Rockville, Md.). MDA-MB-231 cell lines were incubated in L-15 medium supplemented with 10% FBS and 1% penicillin/streptomycin (Gibco BRL) at a T-75 cm^2 growth flask. In addition, BxPC-3 cell lines were incubated in RPMI medium supplemented with 10% FBS and 1% penicillin/streptomycin. For experiments of toxicity to normal cells, fibroblasts Hs27 (ATCC #CRL 1634) and Balb/c3t3 (ATCC #CCL 163) were used. The various cell lines were transferred into 96-well plates at a density of 3,000˜5,000 cells/100 μL, and cultured for 24 hours under conditions of 37° C., 5% CO2, 95% air, and 100% relative humidity (MDA-MB-231 cells were cultured under atmospheric conditions). The cells were treated with 10 μM˜0.1 nM of test compounds, and MDA-MB-231, BxPC-3, and normal cell lines were cultured for 120, 96, and 72 hours, respectively.
Cell viabilities of MDA-MB-231 cell lines were measured at an absorbance of 490 nm using CellTiter 96™ AQueous One Solution Cell proliferation Assay (MTS, Promega), and cell viabilities of BxPC-3 and normal cell lines were measured by fixing cells with 10% TCA (trichloroacetic acid), staining with SRB (sulforhodamine B), and measuring at 540 nm. From the values, GI50 values in which test compounds reduce the growth of cancer cells by 50% were calculated. The growth rates of cancer cells were calculated from following Equation 1 or 2. [(Ti−Tz)/(C−Tz)]×100 (for Ti>=Tz) [Equation 1] [(Ti−Tz)/Tz]×100 (for Ti<Tz) [Equation 2] In Equations 1 and 2, Tz refers to a density of untreated cells, which is an absorbance in 0% cell growth groups. C refers to a density of cells cultured by adding only medium, and Ti refers to a density of cells treated with test compounds.
GI50 value is the concentration of a test compound when the value of Equation 1 is 50, which indicates the concentration of test compound required to inhibit the cancer cells by 50%. On each measurement, test compounds were compared with a control.
The activity value of each compound (GI50 value) was shown in Table 5, and an IAP antagonist was used as a control.
In the activity measurement on MDA-MB-231 breast cancer cell lines, the values were represented as “***” for 100 nM or less, “**” for over 100 nM to below 1,000 nM, and “*” for 1,000 nM or more. In the measurement on normal cell lines, Balb/C and Hs27, the values were represented as “+++” for 10,000 nM or more, “++” for over 5,000 nM to below 10,000 nM, and “+” for 5,000 nM or less.

Data set [3] concerns MDA-MB-231 breast cancer cell lines. Briefly: Evaluation of inhibition on cell growth (MTS). The data set is classed as cell-based. The following applies: Homo sapiens, MDA-MB-231, 120 hours. Put shortly: as §1

With `CN[C@@H](C)C(=O)N[C@H](C(=O)N1CCC[C@H]1C(=O)Nc1cc2c(NC3CCCCC3)ncnc2cc1OC)C(C)(C)C` [Example 38, (S)—N-(4-(cyclohexylamino)-7-methoxyquinazolin-6-yl)-1-((S)-3,3-dimethyl-2-((S)-2-(methylamino)propanamido)butanoyl)pyrrolidine-2-carboxamide hydrochloride], the GI50 at 72 h in data set [1] and in data set [2] was greater than 10 µM throughout. In data set [3], this compound displayed a GI50 of no more than 0.1 µM.
`CN[C@@H](C)C(=O)N[C@H](C(=O)N1CCC[C@H]1C(=O)Nc1cc2c(Nc3ccc(-c4ccccc4)cc3)ncnc2cc1OC)C(C)(C)C` [Example 39, (S)—N-(4-(biphenyl-4-ylamino)-7-methoxyquinazolin-6-yl)-1-((S)-3,3-dimethyl-2-((S)-2-(methylamino)propanamido)butanoyl)pyrrolidine-2-carboxamide hydrochloride]: the GI50 at 72 h in data set [1] and in data set [2] was greater than 10 µM each time. The GI50 in data set [3] was no more than 0.1 µM.
In the case of `CN[C@@H](C)C(=O)N[C@H](C(=O)N1CCC[C@H]1C(=O)Nc1cc2c(Nc3ccc(Oc4ccccc4)cc3)ncnc2cc1OC)C(C)(C)C` [Example 40, (S)-1-((S)-3,3-dimethyl-2-((S)-2-(methylamino)propanamido)butanoyl)-N-(7-methoxy-4-(4-phenoxyphenylamino)quinazolin-6-yl)pyrrolidine-2-carboxamide hydrochloride], the GI50 at 72 h in data set [1] and in data set [2] was greater than 10 µM throughout. This compound also showed a GI50 in data set [3] of no more than 0.1 µM.
As to `CN[C@@H](C)C(=O)N[C@H](C(=O)N1CCC[C@H]1C(=O)Nc1cc2c(Nc3ccc(F)c(Cl)c3)ncnc2cc1OC)C(C)(C)C` [Example 41, (S)—N-(4-(3-chloro-4-fluorophenylamino)-7-methoxyquinazolin-6-yl)-1-((S)-3,3-dimethyl-2-((S)-2-(methylamino)propanamido)butanoyl)pyrrolidine-2-carboxamide hydrochloride], the GI50 at 72 h in data set [1] and in data set [2] was greater than 10 µM throughout. For the same compound, the GI50 in data set [3] was no more than 0.1 µM.
For the compound `CN[C@@H](C)C(=O)N[C@H](C(=O)N1CCC[C@H]1C(=O)Nc1cc2c(Nc3cccc(F)c3F)ncnc2cc1OC)C(C)(C)C` [Example 42, (S)—N-(4-(2,3-difluorophenylamino)-7-methoxyquinazolin-6-yl)-1-((S)-3,3-dimethyl-2-((S)-2-(methylamino)propanamido)butanoyl)pyrrolidine-2-carboxamide hydrochloride], the GI50 at 72 h in data set [1] and in data set [2] was greater than 10 µM in each case. The GI50 in data set [3] is no more than 0.1 µM.
`CN[C@@H](C)C(=O)N[C@H](C(=O)N1CCC[C@H]1C(=O)Nc1cc2c(Nc3ccc(F)c(Cl)c3F)ncnc2cc1O)C(C)(C)C` [Example 43, (S)—N-(4-(3-chloro-2,4-difluorophenylamino)-7-hydroxyquinazolin-6-yl)-1-((S)-3,3-dimethyl-2-((S)-2-(methylamino)propanamido)butanoyl)pyrrolidine-2-carboxamide]: the GI50 at 72 h in data set [1] and in data set [2] was greater than 10 µM in each case. This compound also had a GI50 in data set [3] of no more than 0.1 µM.
Regarding `C#CCO[C@H](C)[C@H](NC(=O)[C@H](C)NC)C(=O)N1CCC[C@H]1C(=O)Nc1cc2c(Nc3ccc(F)c(Cl)c3F)ncnc2cc1OC` [Example 45, (S)—N-(4-(3-chloro-2,4-difluorophenylamino)-7-methoxyquinazolin-6-yl)-1-((2S,3R)-2-((S)-2-(methylamino)propanamido)-3-(prop-2-ynyloxy)butanoyl)pyrrolidine-2-carboxamide hydrochloride], the GI50 at 72 h in data set [1] and in data set [2] was greater than 10 µM in each case. The same compound came in with a GI50 in data set [3] of no more than 0.1 µM.
For `CN[C@@H](C)C(=O)N[C@H](C(=O)N1C[C@H](OCc2ccccc2)C[C@H]1C(=O)Nc1cc2c(Nc3ccc(F)c(Cl)c3F)ncnc2cc1OC)C(C)(C)C` [Example 46, (2S,4R)-4-(benzyloxy)-N-(4-(3-chloro-2,4-difluorophenylamino)-7-methoxyquinazolin-6-yl)-1-((S)-3,3-dimethyl-2-((S)-2-(methylamino)propanamido)butanoyl)pyrrolidine-2-carboxamide hydrochloride], the GI50 at 72 h in data set [1] and in data set [2] was greater than 10 µM each time. This compound returned a GI50 in data set [3] of no more than 0.1 µM.
Regarding `CN[C@@H](C)C(=O)N[C@H](C(=O)N1CCC[C@H]1C(=O)Nc1cc2c(Nc3ccccc3N3CCOCC3)ncnc2cc1OC)C(C)(C)C` [Example 47, (S)-1-((S)-3,3-dimethyl-2-((S)-2-(methylamino)propanamido)butanoyl)-N-(7-methoxy-4-(2-morpholinophenylamino)quinazolin-6-yl)pyrrolidine-2-carboxamide], the GI50 at 72 h in data set [1] and in data set [2] was greater than 10 µM each time. Also, the GI50 in data set [3] was no more than 0.1 µM.
For the compound `CN[C@@H](C)C(=O)N[C@H](C(=O)N1CCC[C@H]1C(=O)Nc1ccc2ncnc(Nc3ccc(F)c(Cl)c3F)c2c1)C(C)(C)C` [Example 48, (S)—N-(4-(3-chloro-2,4-difluorophenylamino)quinazolin-6-yl)-1-((S)-3,3-dimethyl-2-((S)-2-(methylamino)propanamido)butanoyl)pyrrolidine-2-carboxamide], the GI50 at 72 h in data set [1] and in data set [2] was greater than 10 µM in each case. Further, the GI50 in data set [3] was no more than 0.1 µM.
On to `CN[C@@H](C)C(=O)N[C@H](C(=O)N1CCC[C@H]1C(=O)Nc1cc2c(Nc3ccc(OC)cc3)ncnc2cc1OC)C(C)(C)C` [Example 49, (S)-1-((S)-3,3-dimethyl-2-((S)-2-(methylamino)propanamido)butanoyl)-N-(7-methoxy-4-(4-methoxyphenylamino)quinazolin-6-yl)pyrrolidine-2-carboxamide hydrochloride], for which the GI50 at 72 h in data set [1] and in data set [2] was greater than 10 µM in each case. The compound also showed a GI50 in data set [3] of no more than 0.1 µM.
As to `CN[C@@H](C)C(=O)N[C@H](C(=O)N1CCC[C@H]1C(=O)Nc1cc2c(N3CCCc4ccccc43)ncnc2cc1OC)C(C)(C)C` [Example 50, (S)—N-(4-(3,4-dihydroquinoline-1(2H)-yl)-7-methoxyquinazolin-6-yl)-1-((S)-3,3-dimethyl-2-((S)-2-(methylamino)propanamido)butanoyl)pyrrolidine-2-carboxamide hydrochloride], the GI50 at 72 h in data set [1] and in data set [2] was greater than 10 µM each time. The GI50 in data set [3] was no more than 0.1 µM.
As for `CN[C@@H](C)C(=O)N[C@H](C(=O)N1CCC[C@H]1C(=O)Nc1cc2c(Nc3c(Cl)ccc4c3OCO4)ncnc2cc1OC)C(C)(C)C` [Example 51, (S)—N-(4-(5-chlorobenzo[d][1,3]dioxol-4-ylamino)-7-methoxyquinazolin-6-yl)-1-((S)-3,3-dimethyl-2-((S)-2-(methylamino)propanamido)butanoyl)pyrrolidine-2-carboxamide hydrochloride], the GI50 at 72 h in data set [1] and in data set [2] was greater than 10 µM in each case. The same compound yielded a GI50 in data set [3] of no more than 0.1 µM.
`CN[C@@H](C)C(=O)N[C@H](C(=O)N1CCC[C@H]1C(=O)Nc1cc2c(Nc3ccc4c(c3)CCC4)ncnc2cc1OC)C(C)(C)C` [Example 52, (S)—N-(4-(2,3-dihydro-1H-inden-5-ylamino)-7-methoxyquinazolin-6-yl)-1-((S)-3,3-dimethyl-2-((S)-2-(methylamino)propanamido)butanoyl)pyrrolidine-2-carboxamide hydrochloride]: the GI50 at 72 h in data set [1] and in data set [2] was greater than 10 µM each time. The same compound registered a GI50 in data set [3] of no more than 0.1 µM.
